Assay results reported in patent US10981902B2 (Merck Sharp & Dohme Corp., priority 2017, dated 2021).

Biological target: T1, human M4 muscarinic acetylcholine receptor (Homo sapiens, UniProt P08173)
T1 construct: expressed in transfected cells; host or cells: CHO-K1
T1 sequence (P08173 1-479): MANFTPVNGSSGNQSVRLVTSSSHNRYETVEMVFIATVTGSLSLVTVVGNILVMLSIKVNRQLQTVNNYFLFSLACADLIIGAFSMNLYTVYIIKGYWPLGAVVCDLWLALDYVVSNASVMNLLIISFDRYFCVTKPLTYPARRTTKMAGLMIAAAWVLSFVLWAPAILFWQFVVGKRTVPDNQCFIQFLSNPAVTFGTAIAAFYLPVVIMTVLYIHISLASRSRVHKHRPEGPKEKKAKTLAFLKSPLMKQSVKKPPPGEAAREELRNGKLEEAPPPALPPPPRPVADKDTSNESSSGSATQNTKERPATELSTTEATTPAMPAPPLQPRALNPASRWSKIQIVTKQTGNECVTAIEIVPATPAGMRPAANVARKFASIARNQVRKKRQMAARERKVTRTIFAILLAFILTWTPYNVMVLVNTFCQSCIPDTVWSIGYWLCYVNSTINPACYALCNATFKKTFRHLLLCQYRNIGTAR
Test: human FLIPR-based M4 PAM assay (calcium mobilization, CHO-K1 cells with human M4 receptor and Gαqi5)
Assay type: cell-based
Details: inflection point (IP) of dose response curve, acetylcholine added at 20% of maximum response, read-out: M4 FLIPPR Hu IP
Protocol: In a typical experiment the M4 muscarinic acetylcholine receptor modulating activity of the compounds of the present invention was determined in accordance with the following experimental method. CHO-K1 cells stably transfected with human M4 receptor and chimeric G-protein Gαqi5 (Coward P, et al., Analytical Biochemistry, 270:242-248 (1999)) are thawed from liquid N2 storage, resuspended in growth medium, plated in black, clear bottom 384 well plates, and incubated 16-20 hours at 37° C., 5% CO2. On the day of assay, growth medium is removed, the cells are washed 2 times with wash buffer, and cells are incubated in dye loading buffer at 37° C., 5% CO2 for ˜1 hour. Following dye loading the cell plates are placed in a FLIPR Tetra instrument and while monitoring dye fluorescence (excitation […]), 10 uL of test substance at increasing concentrations is added, and fluorescence values are recorded for 4 min. Next, 10 uL of acetylcholine is added (final concentration calculated so as to achieve 20% of the maximum acetycholine response), and the fluorescence reading is continued for 3.5 min. In some cases, a third addition of acetylcholine (final concentration calculated to achieve 70% of the maximal acetylcholine response) is performed. The resulting dose response curves are fit to a 4 parameter logistic equation and the final result is determined as the inflection point (IP) of the curve
CHO-K1 cells stably transfected with human M4 receptor and chimeric G-protein Gαqi5 are thawed from liquid N2 storage, resuspended in growth medium, plated in black, clear bottom 384 well plates, and incubated 16-20 hours at 37° C., 5% CO2.
On the day of assay, growth medium is removed, the cells are washed 2 times with wash buffer, and cells are incuabted in dye loading buffer at 37° C., 5% CO2 for ˜1 h. Following dye loading the cell plates are placed in a FLIPR Tetra instrument and while monitoring dye fluorescence ([…]), 10 uL of test substance at increasing concentrations is added, and fluorescence values are recorded for 4 min. Next, 10 uL of acetylcholine is added (final concentration calculated so as to achieve 20% of the maximum acetycholine response), and the fluorescence reading is continued for 3.5 min. In some cases, a third addition of acetylcholine (final concentration calculated to achieve 70% of the maximal acetylcholine response) is performed.

| SMILES | EC50 [µM] |
| --- | --- |
| COc1cc2ccc(-c3nc(C)ccc3-c3cnc(Cc4ccc(F)cc4)o3)cc2nn1 [Example 54, 2-(4-fluorobenzyl)-5-(2-(3-methoxycinnolin-7-yl)-6-methylpyridin-3-yl)oxazole] | 0.045 |
| CN1Cc2ccc(-c3nc(C#N)ccc3-c3cnc(CC4(F)CCCC4)o3)cc2C1=O [Example 82, 5-(2-((1-fluorocyclopentyl)methyl)oxazol-5-yl)-6-(2-methyl-3-oxoisoindolin-5-yl)picolinonitrile] | 0.042 |
| CCC(F)(CC)Cc1ncc(-c2ccc(C#N)nc2-c2ccc3cccnc3c2)o1 [Example 74, 5-(2-(2-ethyl-2-fluorobutyl)oxazol-5-yl)-6-(quinolin-7-yl)picolinonitrile] | 0.138 |
| N#Cc1ccc(-c2cnc(CCC(F)(F)C(F)(F)F)o2)c(-c2ccn3ccnc3c2)n1 [Example 109, 6-(imidazo[1,2-a]pyridin-7-yl)-5-(2-(3,3,4,4,4-pentafluorobutyl)oxazol-5-yl) picolinonitrile] | 0.105 |
| N#Cc1ccc(-c2cnc(CC3CCCC3)o2)c(-c2ccc3cccnc3c2)n1 [Example 50, 5-(2-(cyclopentylmethyl)oxazol-5-yl)-6-(quinolin-7-yl)picolinonitrile] | 0.024 |
| N#Cc1ccc(-c2cnc(CC3(F)CCCC3)o2)c(-c2ccc3cccnc3c2)n1 [Example 72, 5-(2-((1-fluorocyclopentyl)methyl)oxazol-5-yl)-6-(quinolin-7-yl)picolinonitrile] | 0.051 |
| CC(Cc1ncc(-c2ccc(C#N)nc2-c2ccc3cccnc3c2)o1)C(C)(C)F (stereo not drawn) [Example 83, 5-(2-(3-fluoro-2,3-dimethylbutyl)oxazol-5-yl)-6-(quinolin-7-yl) picolinonitrile] | 0.068 |
| CN1Cc2ncc(-c3nc(C(F)F)ccc3-c3cnc(CC(C)(C)C)o3)cc2C1=O [Example 20, 3-(6-(difluoro-methyl)-3-(2-neopentyloxazol-5-yl)pyridin-2-yl)-6-methyl-6,7-dihydro-5H-pyrrolo[3,4-b]-pyridin-5-one] | 0.163 |
| N#Cc1ccc(-c2cnc(CC(O)C3CC3)o2)c(-c2ccc3cccnc3c2)n1 (stereo not drawn) [Example 68, 5-(2-(2-cyclopropyl-2-hydroxyethyl)oxazol-5-yl)-6-(quinolin-7-yl)picolinonitrile] | 0.231 |
| CC(C)(C)Cc1ncc(-c2ccc(C(F)F)nc2-c2ccc3cccnc3c2)o1 [Example 13, 5-(6-(difluoro-methyl)-2-(quinolin-7-yl)pyridin-3-yl)-2-neopentyloxazole] | 0.128 |
| CC1(Cc2ncc(-c3ccc(C#N)nc3-c3ccc4cccnc4c3)o2)CCCC1 [Example 7, 5-(2-((1-methyl-cyclopentyl)methyl)-oxazol-5-yl)-6-(quinolin-7-yl)-picolinonitrile] | 0.034 |
| Cc1ccc(-c2cnc(CC3CCCC3)o2)c(-c2ccc3cccnc3c2)n1 [Example 1, 2-(cyclopentylmethyl)-5-(6-methyl-2-(quinolin-7-yl)pyridin-3-yl)oxazole] | 0.007 |
| CN1Cc2ncc(-c3nc4c(cc3-c3cnc(CC5CCCC5)o3)CCC4)cc2C1=O [Example 53, 3-(3-(2-(cyclopentylmethyl)oxazol-5-yl)-6,7-dihydro-5H-cyclopenta[b]pyridin-2-yl)-6-methyl-6,7-dihydro-5H-pyrrolo[3,4-b] pyridin-5-one] | 0.153 |
| Clc1ccc(-c2cnc(CC3CCCC3)o2)c(N2CCn3ccnc3C2)n1 [Example 57, 5-(6-chloro-2-(5,6-dihydroimidazo[1,2-a]pyrazin-7(8H)-yl)pyridin-3-yl)-2-(cyclopentylmethyl) oxazole] | 0.117 |
| CC(C)(F)CCc1ncc(-c2ccc(C#N)nc2-c2ccn3ccnc3c2)o1 [Example 104, 5-(2-(3-fluoro-3-methylbutyl)oxazol-5-yl)-6-(imidazo[1,2-a]pyridin-7-yl) picolinonitrile] | 0.147 |
| CC(Cc1ncc(-c2ccc(C#N)nc2-c2ccn3ccnc3c2)o1)C(F)(F)F (racemic) [Example 38, 6-(imidazo[1,2-a]-pyridin-7-yl)-5-(2-(3,3,3-trifluoro-2-methylpropyl)oxazol-5-yl)picolinonitrile] | 0.212 |
| CC(C)(C)Cc1ncc(-c2ccc(C#N)nc2-c2cnc3c(c2)C(=O)N(CC2CC2)C3)o1 [Example 39, 6-(6-(cyclopropyl-methyl)-5-oxo-6,7-dihydro-5H-pyrrolo[3,4-b]-pyridin-3-yl)-5-(2-neopentyloxazol-5-yl)picolinonitrile] | 0.093 |
| Cc1nnc2cc(-c3nc(C#N)ccc3-c3cnc(CC(C)(C)C)o3)ccn12 [Example 35, 6-(3-methyl-[1,2,4]-triazolo[4,3-a]pyridin-7-yl)-5-(2-neopentyl-oxazol-5-yl)picolino-nitrile] | 0.13 |
| N#Cc1ccc(-c2cnc(CC3CCC3)o2)c(-c2ccc3cccnc3c2)n1 [Example 29, 5-(2-(cyclobutyl-methyl)oxazol-5-yl)-6-(quinolin-7-yl)-picolinonitrile] | 0.03 |
| Cc1nc2cc(-c3nc(C#N)ccc3-c3cnc(CC(C)(C)C(F)(F)F)o3)ccc2n1C [Example 111, 6-(1,2-dimethyl-1H-benzo[d]imidazol-5-yl)-5-(2-(3,3,3-trifluoro-2,2-dimethylpropyl)oxazol-5-yl)picolinonitrile] | 0.114 |
| CN1Cc2ccc(-c3nc(F)ccc3-c3cnc(CC4(C)CCCC4)o3)cc2C1=O [Example 8, 6-(6-fluoro-3-(2-((1-methylcyclo-pentyl)methyl)oxazol-5-yl)pyridin-2-yl)-2-methylisoindolin-1-one] | 0.044 |
| N#Cc1ccc(-c2cnc(CC3CC3)o2)c(-c2ccn3ccnc3c2)n1 [Example 63, 5-(2-(cyclopropylmethyl)oxazol-5-yl)-6-(imidazo[1,2-a]pyridin-7-yl)picolinonitrile] | 0.094 |
| Cn1cnc2cc(-c3ncccc3-c3cnc(CC(C)(C)C(F)(F)F)o3)ccc21 [Example 115, 5-(2-(1-methyl-1H-benzo[d]imidazol-5-yl)pyridin-3-yl)-2-(3,3,3-trifluoro-2,2-dimethylpropyl) oxazole] | 0.128 |
| CCC(C)(F)Cc1ncc(-c2ccc(C#N)nc2-c2ccn3cc(C)nc3c2)o1 (stereo not drawn) [Example 90, 5-(2-(2-fluoro-2-methylbutyl)oxazol-5-yl)-6-(2-methylimidazo [1,2-a]pyridin-7-yl)picolinonitrile] | 0.031 |
| CC1(Cc2ncc(-c3ccc(C#N)nc3-c3cnc4c(c3)C(=O)N(CCF)C4)o2)CCCC1 [Example 96, 6-(6-(2-fluoroethyl)-5-oxo-6,7-dihydro-5H-pyrrolo[3,4-b]pyridin-3-yl)-5-(2-((1-methylcyclopentyl)methyl)oxazol-5-yl)picolinonitrile] | 0.052 |
| CC(C)(Cc1ncc(-c2ccc(C#N)nc2-c2ccn3ccnc3c2)o1)C(F)(F)F [Example 28, 6-(imidazo[1,2-a]-pyridin-7-yl)-5-(2-(3,3,3-trifluoro-2,2-dimethylpropyl)-oxazol-5-yl)picolino-nitrile] | 0.122 |
| CC(C)CCc1ncc(-c2ccc(C#N)nc2-c2ccc3cccnc3c2)o1 [Example 31, 5-(2-isopentyloxazol-5-yl)-6-(quinolin-7-yl)picolinonitrile] | 0.043 |
| CC(C)(C)Cc1ncc(-c2ccc(C(F)F)nc2-c2ccn3cnnc3c2)o1 [Example 30, 5-(2-([1,2,4]triazolo-[4,3-a]pyridin-7-yl)-6-(difluoromethyl)-pyridin-3-yl)-2-neo-pentyloxazole] | 0.086 |
| Cc1cn2ccc(-c3nc(C#N)ccc3-c3cnc(CC(C)(C)C)o3)cc2n1 [Example 32, 6-(2-methylimidazo-[1,2-a]pyridin-7-yl)-5-(2-neopentyloxazol-5-yl)picolinonitrile] | 0.069 |
| Cc1cn2ccc(-c3nc(C#N)ccc3-c3cnc(CC(O)C(C)C)o3)cc2n1 (stereo not drawn) [Example 92, 5-(2-(2-hydroxy-3-methylbutyl)oxazol-5-yl)-6-(2-methylimidazo [1,2-a]pyridin-7-yl)picolinonitrile] | 0.131 |
